Laboratory results taken from patent US8747740B2, “Process and apparatus for generating haloamine biocide” (Hercules Incorporated, priority 2007, dated 2014).

Assay: Stability of chloramine in aqueous solution
Assay type: physicochemical
Conditions: pH of about 10 to about 11; partially decomposes at higher concentrations or lower pH

In the case of `NCl` [chloramine, Monochloramine], the “concentration up to which chloramine is stable” value is reported as “up to 1,000 ppm”.
